# Laboratory results from US12708791B2, “Management of dermal neurofibromatosis lesions” (Sun Pharmaceutical Industries, Inc., priority 2020, dated 2026).
# Several values for one entry are separate records, joined by “and”; a condition that tells them apart may be missing. Equal values may be shown once.
# Tests used:
# Type in all cases: in vivo, human
# [1] = system: superficial dermal neurofibromas; experiment: Photosensitizer uptake and conversion: PpIX fluorescence in excised tumors by confocal microscopy
# Experimental: Four adult subjects were enrolled (2 males, 2 females) in part 1. Three tumor groups for each subject consisted of untreated negative controls, tumors treated with drug vehicle only, and ALA (Levulan® Kerastick® Topical Solution, Sun Pharma, Wilmington, MA, USA) treated tumors. Treated tumors were incubated with ALA or vehicle three hours (2 subjects) or overnight (2 subjects), then excised and subjected to fluorescence microscopy studies to measure mean fluorescence indicating PpIX conversion in tumors. Four adult subjects (2 males, 2 females) participated in part 1. Ages ranged from 39 to 67 yrs.
# Photosensitizer Uptake: Treated tumors were incubated with ALA or vehicle three hours (2 subjects) or overnight (2 subjects), then excised and subjected to fluorescence microscopy studies to measure mean fluorescence indicating PpIX conversion in tumors. Importantly, ALA delivery for the subjects undergoing overnight incubation was assisted using microneedling (Dermapen®, Salt Lake City, Utah) of the tumors. […] The primary outcome measure was the ratio of mean fluorescence intensity in tumors compared to adjacent normal tissue, as determined by confocal microscopy. PpIX signals were detected with excitation at 405 nm and emission with a 600 nm long pass filter.
# [2] = system: neurofibroma lesions
# Experimental: Nine adult subjects participated in part 2, four male and five female. Ages ranged from 39 to 69, with a median of 58. For each subject neurofibromalesions were selected for treatment with ALA (3-6 lesions) and vehicle (3-6 lesions) delivered with microneedling. Following an overnight (16-18 hrs.) incubation time, all treated neurofibromas were illuminated with red light at 633 nm and 105 mW/cm^2 (Omnilux Revive® LED illuminator, Photo Therapeutics, Montgomeryville, PA, USA). The dose escalation study included doses of 50, 100 or 200 J/cm^2. Each subject received one single treatment.
# Study Design: This study followed a 3+3 Phase I trial design, subjects were treated starting at a dose level of 50 J/cm^2. Dose escalation was performed only after a minimum of three subjects had been evaluated at the current level. If dose-limiting toxicity (DLT) occurred in 1 of 3 subjects, 3 more subjects would be evaluated at that dose level. DLT was defined as pain during irradiation requiring cessation of the light treatment, or any serious cutaneous adverse events, such as erosions or blistering or crusting of the skin. If 0 of these 3 subjects experienced DLT, then the dose was escalated (only one DLT in six subjects). If DLT occurred in 1 of the additional 3 subjects, the […] tolerable dose (MTD) had been exceeded (two DLTs in six subjects) and 3 more subjects would be treated at the next lower dose (if only 3 subjects had been treated previously at that dose). […] The MTD is defined as that dose level immediately below the dose level at which 2 subjects of a cohort (three or six subjects) experience DLT.
# (§1) (day 2), and 2 to 4 (day 14-28) weeks after light treatment, for evaluation of cutaneous adverse events. At day 2, tumors were biopsied using a punch technique and subjected to light microscopy exam, TUNEL assay (DeadEnd™ Colorimetric TUNEL System, Promega, Madison, WI), and DAPI (4′,6-diamidino-2-phenylindole) staining (ab228549, Abcam, Cambridge, MA). Additional follow-up visits for measurement of lesions were made at periods of 3 months up to one year. See FIG. 1 for a schematic of the study design. The primary outcome for this clinical study was MTD, as measured in the dose escalation using the DLT as defined above. A secondary outcome measured efficacy defined by change in lesion size. The area of the lesion was estimated at baseline and during follow-up visits by measuring the long and short axis of the lesion. Average growth rates were calculated and comparisons made between ALA-treated and placebo lesions within the same subject. The null hypothesis was that there would be no difference in the growth rates of ALA-treated lesions when paired with same-subject placebo lesions. The alternative hypothesis was there would be a difference in the ALA and placebo lesion growth rates.
# [3] = system: neurofibromas; experiment: Light microscopy exam (hematoxylin & eosin) of tumors biopsied at day 2; details: ALA-treated tumors, day 2 after PDT
# Excerpt: as §1
# [4] = system: neurofibromas; experiment: TUNEL assay for apoptotic cell death in tumors biopsied at day 2; details: all TUNEL evaluated tumor samples, five subjects; p=0.002 vs vehicle
# Excerpt: as §1
# [5] = system: neurofibroma lesions; experiment: Lesion size and growth rate after PDT treatment
# Excerpt: as §1
smiles,measurement,setting,value
"NCC(=O)CCC(=O)O [ALA, 5-aminolevulinic acid]",Fluorescence compared to adjacent normal tissue,"[1]; microneedled, overnight incubation",significant fluorescence
same,Fluorescence in the apparent tumor zones,"[1]; topical ALA, incubated 3 hrs., excised tumors from two subjects",no fluorescence
same,Duration of post inflammatory hyperpigmentation,[2]; ALA-PDT treated NF lesions,up to 3 months
same,Time by which edema and redness subsided,[2]; ALA-PDT treated NF lesions,≤ 2 days
same,"Blister formation, erosion or crusting","[2]; human, in vivo","no blister formation, erosion or crusting"
same,Erythema and edema around lesions,"[2]; human, in vivo",marked erythema and edema
same,MTD (light dose),"[2]; human, in vivo",100 J/cm^2
same,Pain and discomfort induced by red light treatment,"[2]; human, in vivo",marked pain and discomfort
same,Subjects with DLT (pain requiring cessation of the light treatment),"[2]; human, in vivo",One subject
same,Duration of erythema and edema,"[2]; red light 105 mW/cm^2, 50 or 100 J/cm^2",at least 48 hrs.
same,Infiltrate on light microscopy,[3],"mixed infiltrate consisting of lymphocytes, neutrophils, and rare eosinophils"
same,Average number of apoptotic cells per visual field,[4],42.5±19.9
same,Tumor size change,"[5]; measured at 2, 4 and 12 weeks after treatment, five subjects",did not show significant change
same,Growth rate ALA,"[5]; post PDT treatment, individual subjects",−0.073 (0.063) mm^2/day and 0.028 (0.040) mm^2/day and 0.097 (0.103) mm^2/day and 0.375 (00157) mm^2/day and −0.024 (0.030) mm^2/day
same,Difference in growth rates (ALA vs placebo),"[5]; post PDT treatment, individual subjects, same-subject placebo lesions",0.034 mm^2/day and −0.239 mm^2/day and 0.097 mm^2/day and −0.440 mm^2/day and −0.110 mm^2/day
